Patent EP0171760A2, “Substituted phenoxypropylaminoethoxyphenoxyacetamides” (BEECHAM GROUP PLC, priority 1984, dated 1986)

Assays:
[1] = system: spontaneously beating right atrium; experiment: Activity on isolated rat atria: rate of spontaneously beating right atrium; design: species or system Sprague-Dawley male rats; conditions: 32°C; for Emax: maximal effect with respect to isoprenaline maximum (isoprenaline 10^-7M = 1), Krebs solution, read-out: Rate Intrinsic activity; for EC50: molar concentration producing 50% of the compound's own maximum response
Method: (§1) Sprague-Dawley male rats (300-400 g) are killed and the right and left atria dissected out independently and mounted on a combined tissue holder/electrode. The tissues are then immersed in a glass bath containing Krebs solution maintained at 32°C. The rate of the spontaneously beating right atrium (via an isometric transducer and a ratemeter) and the tension of the electrically paced left atrium (via an isometric transducer)are recorded on a M19 chart recorder.
(§2) After an initial stabilization period, the tissues are exposed to a maximal concentration of isoprenaline (10^-7M). The tissues are then washed several times until rate and tension return to baseline level. A dose-response curve to the test compound is then carried out.
(§3) Responses to each concentration of test compound are expressed as a percentage of the maximal responses to isoprenaline. Results are given in the form of (a) intrinsic activity (maximal effect of test compound with respect to isoprenaline maximum, i.e. isoprenaline intrinsic activity = 1) and (b) EC50 (the molar concentration at which the test compound produces 50% of its own maximum response).

[2] = system: electrically paced left atrium; experiment: Activity on isolated rat atria: tension of electrically paced left atrium; design: species or system Sprague-Dawley male rats; conditions: 32°C; for Emax: maximal effect with respect to isoprenaline maximum (isoprenaline 10^-7M = 1), Krebs solution, read-out: Tension Intrinsic activity; for EC50: molar concentration producing 50% of the compound's own maximum response
Method: as §1, §2, §3

[3] = system: left ventricular pressure (LVP); experiment: Assessment of inotropic activity in conscious cats; assay type: in vivo; conditions: 0.2 mg/kg p.o., gelatin capsule, recording 6 hours post dosing
Method: Male 3-4.5 kg cats, bred in-house, are implanted with a polythene cannula in the left ventricle which is exte- riorised at the back of the neck by means of a small teflon valve. Recordings are made via a pressure transducer attached by means of a length of polyethylene tubing to the cat neck valve.
During an initial 1 hour stabilisation period, steady baseline recordings are obtained. The test compound, contained in a gelatin capsule, is then administered orally. Recording is normally carried out for 6 hours post dosing.
The maximal percentage change in dp/dt over initial baseline level is used as the index of inotropic activity. Chronotropic activity is taken as the maximal percentage change in HR over initial baseline level.

Row | EC50 [1] | EC50 [2] | Structure (SMILES) | Emax [1] | Emax [2] | Peak HR ([3]; maximal percentage change in HR over initial baseline (chronotropic activity)) | Peak dp/dt ([3]; maximal percentage change in dp/dt over initial baseline (inotropic activity))
1 | 10 nM | 25 nM | CNC(=O)COc1ccc(OCC(C)NCC(O)COc2ccc(O)cc2)cc1 (stereo not shown) [Example 1, N-methyl 4-[2-[3-(4-hydroxyphenoxy)-2-hydroxypropylamino]-2-methylethoxy]phenoxyacetamide] | 94% | 88% | 0% | 22%
2 | 68 nM | 150 nM | CNC(=O)COc1ccc(OCCNCC(O)COc2ccc(O)cc2)cc1 (stereo not shown) [Example 2, N-methyl 4-[2-[3-(4-hydroxyphenoxy)-2-hydroxypropylamino]ethoxy]-phenoxyacetamide] | 77% | 61% | – | –
